Drawing on patent publication US20230210853A1 (Halia Therapeutics, Inc., priority 2020, published 2023), this text covers IC50 for eight molecules.

Read-outs that look alike come from different tables or passages of the source.

Test [1] has as its system IL-1β release. The experiment in a line: IL-1β release assay (PMA-differentiated THP-1 cells, LPS + nigericin, cleaved IL-1β by JESS). The test is classed as cell-based. To be noted: Homo sapiens, THP-1 cells, LPS + nigericin, read-out: IL-1β release IC50. How it is done: (§1) Approximately 1.5 million THP-1 cells were plated in each well of a 6-well TC plate and incubated with 40 nM PMA in RPMI (10% FBS, 1% Penstrep) for 24 hours. The media was then removed and cells were rested in RPMI (10% FBS, 1% Penstrep) for 24 hours after which time the media was removed and cells were pre-treated for 2 hours with various concentrations of compounds of interest (typically serial 3-fold dilution in RPMI +5% FBS, concentrations ranging from 1 μM to 0.5 nM) in RPMI (5% FBS). The media was again removed and cells were incubated with 250 ng/mL LPS and compounds of interest (concentrations as above) in RMPI (5% FBS) for 2 hours. The media was removed for a last time and cells were incubated with 20 μM nigericin and compounds of interest (concentrations as above) in Opti-MEM for 30 minutes. Cell media was then collected and the amount of cleaved IL-1β was determined using a JESS instrument (Protein Simple) and standard protocols. Cleaved 1-PD antibody was obtained from Cell Signaling (catalogue #83186S) and was used at 1:20 dilution in antibody diluent 2. Protein Simple 1× anti-Rabbit HRP secondary antibody was used along with Protein Simple luminol and peroxide for chemiluminescent detection. Primary antibody incubation time was increased from 30 minutes to 60 minutes.
as §1, with “RPMI+5%” for “RPMI +5%”, “Il-1β” for “1-PD”

Test [2] concerns the target T1, full-length recombinant human NEK7 (Homo sapiens, UniProt Q8TDX7).
T1 construct: full-length recombinant human NEK7; GST (N); purchased SignalChem N09-10G; host or cells: Sf9 insect cells (baculovirus)
The test is described as follows: NEK7 enzymatic assay ([33P]-ATP, casein substrate). The conditions noted are these: recombinant human NEK7, casein substrate. Type of test: biochemical. A digest of the protocol:
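GST-tagged enzyme, baculovirus-expressed in Sf9 cells, was mixed with casein in 20 mM Hepes pH 7.5, 10 mM MgCl2, 1 mM EGTA, 0.02% Brij35, 2 mM DTT, 1% DMSO. Compounds (3-fold series, 10 μM–0.5 nM) were preincubated 20 min at RT, then [33P]-ATP was added for 2 h at RT. P81 filter-bound radioactivity was expressed as % of vehicle activity and fitted to IC50.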

T1 sequence (Q8TDX7 whole entry): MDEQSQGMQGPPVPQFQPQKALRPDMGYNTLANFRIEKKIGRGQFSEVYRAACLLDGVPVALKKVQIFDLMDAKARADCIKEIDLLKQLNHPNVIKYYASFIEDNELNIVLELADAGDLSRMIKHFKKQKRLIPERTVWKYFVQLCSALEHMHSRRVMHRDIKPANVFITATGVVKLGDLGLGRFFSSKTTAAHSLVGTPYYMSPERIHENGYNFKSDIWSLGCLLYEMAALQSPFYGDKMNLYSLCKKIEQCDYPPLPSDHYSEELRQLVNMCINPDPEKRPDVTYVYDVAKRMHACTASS

Broadly, the IC50 is the concentration needed to halve the response being measured. As for `CCN1CCN(Cc2ccc(NC(=O)Nc3ccc(-c4nn(C5CC5)c5ncnc(N)c45)cc3F)cc2C(F)(F)F)CC1` [Id-49], the concentration for half-maximal inhibition (IC50) in test [1] (48 h, Table 2d) was under 150 nM; in test [2] (Table 2d), under 150 nM.

For `CN1CCN(Cc2ccc(NC(=O)Nc3ccc(Oc4ccnc5[nH]cc(Cl)c45)cc3F)cc2C(F)(F)F)CC1` [Ie-1, 1-(4-((3-chloro-1H-pyrrolo[2,3-b]pyridin-4-yl)oxy)-2-fluorophenyl)-3-(4-((4-methylpiperazin-1-yl)methyl)-3-(trifluoromethyl)phenyl)urea], the figures for the IC50 in test [1] (Table 2e) and in test [2] (Table 2e) were under 150 nM and 151 to 300 nM, respectively.

In the case of `CCN1CCN(Cc2ccc(NC(=O)Nc3ccc(Oc4ccnc5[nH]cc(Cl)c45)cc3F)cc2C(F)(F)F)CC1` [Ie-9, 1-(4-((3-chloro-1H-pyrrolo[2,3-b]pyridin-4-yl)oxy)-2-fluorophenyl)-3-(4-((4-ethylpiperazin-1-yl)methyl)-3-(trifluoromethyl)phenyl)urea], the results for the IC50 in test [1] (Table 2e) and in test [2] (Table 2e) were under 150 nM and 501 to 1500 nM, respectively.

Regarding `CN1CCC(Oc2ccc(NC(=O)Nc3ccc(Oc4ccnc5[nH]cc(Cl)c45)cc3F)cc2C(F)(F)F)CC1` [Ie-16, 1-(4-((3-chloro-1H-pyrrolo[2,3-b]pyridin-4-yl)oxy)-2-fluorophenyl)-3-(4-((1-methylpiperidin-4-yl)oxy)-3-(trifluoromethyl)phenyl)urea], the IC50 in test [1] (Table 2e) was under 150 nM; in test [2] (Table 2e), 151 to 300 nM.

`CN1CCC(=Cc2ccc(NC(=O)Nc3ccc(Oc4ccnc5[nH]cc(Cl)c45)cc3F)cc2C(F)(F)F)CC1` [Ie-20, 1-(4-((3-chloro-1-pyrrolo[2,3-b]pyridin-4-yl)oxy)-2-fluorophenyl)-3-(4-((1-methylpiperidin-4-ylidene)methyl)-3-(trifluoromethyl)phenyl)urea]: the results for the IC50 in test [1] (Table 2e) and in test [2] (Table 2e) were under 150 nM and 301 to 500 nM, respectively.

With `CN1CCN(Cc2ccc(NC(=O)Nc3ccc(Oc4ccnc5[nH]cc(C6CC6)c45)cc3F)cc2C(F)(F)F)CC1` [Ie-26, 1-(4-((3-cyclopropyl-1H-pyrrolo[2,3-b]pyridin-4-yl)oxy)-2-fluorophenyl)-3-(4-((4-methylpiperazin-1-yl)methyl)-3-(trifluoromethyl)phenyl)urea], the IC50 in test [1] (Table 2e) was under 150 nM; in test [2] (Table 2e), 501 to 1500 nM.

Consider `Cc1[nH]c2nccc(Oc3ccc(NC(=O)Nc4ccc(CN5CCN(C)CC5)c(C(F)(F)F)c4)c(F)c3)c2c1Cl` [Ie-27, 1-(4-((3-chloro-2-methyl-1H-pyrrolo[2,3-b]pyridin-4-yl)oxy)-2-fluorophenyl)-3-(4-((4-methylpiperazin-1-yl)methyl)-3-(trifluoromethyl)phenyl)urea], for which the IC50 in test [1] (Table 2e) is under 150 nM; in test [2] (Table 2e), 301 to 500 nM.

On to `Cc1c[nH]c2nccc(Oc3ccc(NC(=O)Nc4ccc(CN5CCN(C)CC5)c(C(F)(F)F)c4)c(F)c3)c12` [Ie-28, 1-(2-fluoro-4-((3-methyl-1H-pyrrolo[2,3-b]pyridin-4-yl)oxy)phenyl)-3-(4-((4-methylpiperazin-1-yl)methyl)-3-(trifluoromethyl)phenyl)urea], for which the IC50 in test [1] (Table 2e) and in test [2] (Table 2e) was 151 to 300 nM throughout.
